According to paper PMC9162272 (Journal of Cardiovascular Pharmacology, 2022):
Read-outs that look alike come from different tables or passages of the source.

Target: PDE-III (Homo sapiens, UniProt Q14432)
Assay: Phosphodiesterase inhibition, purified PDE-III isozyme
Assay type: biochemical
Conditions: for PDE-IV Versus PDE-III, IC50 Ratio: selectivity of inhibition of PDE-III over PDE-IV
[1] = read-out: PDE-III IC50, PDE-III isolated from human platelets, 30°C, 30 minutes, [3H]-cAMP 0.1 µM and cAMP 0.1 µM, duplicates

Chain of PDE-III (Q14432 whole entry): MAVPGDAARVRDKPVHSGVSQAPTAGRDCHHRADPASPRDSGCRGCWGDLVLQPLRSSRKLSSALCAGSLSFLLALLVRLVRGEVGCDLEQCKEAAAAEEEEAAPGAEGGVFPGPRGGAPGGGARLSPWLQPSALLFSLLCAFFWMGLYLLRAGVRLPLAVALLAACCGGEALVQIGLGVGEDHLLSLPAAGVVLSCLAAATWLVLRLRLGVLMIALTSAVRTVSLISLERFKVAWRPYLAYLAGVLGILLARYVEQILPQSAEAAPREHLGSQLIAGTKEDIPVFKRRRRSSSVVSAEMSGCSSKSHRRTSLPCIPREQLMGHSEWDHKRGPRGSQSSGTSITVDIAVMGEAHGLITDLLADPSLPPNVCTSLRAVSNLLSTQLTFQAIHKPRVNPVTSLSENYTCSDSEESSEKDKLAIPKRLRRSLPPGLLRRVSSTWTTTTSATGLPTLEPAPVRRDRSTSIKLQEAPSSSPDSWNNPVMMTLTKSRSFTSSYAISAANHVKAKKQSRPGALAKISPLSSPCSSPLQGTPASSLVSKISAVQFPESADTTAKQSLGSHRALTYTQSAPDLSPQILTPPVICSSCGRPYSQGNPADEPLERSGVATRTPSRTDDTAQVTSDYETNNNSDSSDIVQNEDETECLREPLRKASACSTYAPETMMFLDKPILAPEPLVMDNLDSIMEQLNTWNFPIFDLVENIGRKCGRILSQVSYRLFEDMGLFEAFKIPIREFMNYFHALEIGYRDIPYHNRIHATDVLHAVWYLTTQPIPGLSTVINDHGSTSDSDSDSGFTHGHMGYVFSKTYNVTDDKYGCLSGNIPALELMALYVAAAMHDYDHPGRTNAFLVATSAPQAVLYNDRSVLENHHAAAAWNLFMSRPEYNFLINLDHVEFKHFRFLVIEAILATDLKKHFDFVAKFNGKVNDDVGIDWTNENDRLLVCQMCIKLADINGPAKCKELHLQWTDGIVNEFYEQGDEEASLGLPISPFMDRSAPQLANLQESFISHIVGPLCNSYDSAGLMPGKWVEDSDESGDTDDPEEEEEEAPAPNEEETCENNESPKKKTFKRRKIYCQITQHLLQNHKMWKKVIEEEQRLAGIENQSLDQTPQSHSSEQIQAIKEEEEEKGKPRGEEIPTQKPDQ

IC50 [nM]	PDE-IV Versus PDE-III, IC50 Ratio	IC50 [1] [nM]	Structure (SMILES)
2.1	7619		C[C@@H]1CC(=O)NN=C1c1ccc(NN=C(C#N)C#N)cc1 [Levosimendan, levosimendan, reference compound]
	100	5000	C[C@@H]1CC(=O)NN=C1c1ccc(N)cc1 [OR-1855]
	3043	94	CC(=O)Nc1ccc(C2=NNC(=O)C[C@H]2C)cc1 [OR-1896]
